# Activity calls are given as the source filed them. The rule behind the calls is not given here.
# How the values were obtained:
# Type in all cases: functional
# [1] = target: T1, Histidine-rich protein PFHRP-II (Plasmodium falciparum) (UniProt P05227); assay: Inhibition of beta-hematin formation at drug to heme molar equivalent ratio of 10 by infrared spectra measured after 18 hrs
# T1 sequence (whole entry): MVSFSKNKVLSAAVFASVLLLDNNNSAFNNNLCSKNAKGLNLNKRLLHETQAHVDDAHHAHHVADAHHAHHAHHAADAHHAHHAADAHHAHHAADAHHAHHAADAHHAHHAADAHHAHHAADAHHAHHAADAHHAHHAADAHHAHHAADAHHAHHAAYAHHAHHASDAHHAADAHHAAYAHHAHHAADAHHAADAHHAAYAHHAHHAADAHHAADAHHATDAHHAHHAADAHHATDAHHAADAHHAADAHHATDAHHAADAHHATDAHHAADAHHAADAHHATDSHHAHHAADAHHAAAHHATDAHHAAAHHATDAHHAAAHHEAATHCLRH
# [2] = target: T1, Histidine-rich protein PFHRP-II (Plasmodium falciparum); assay: Inhibition of beta-hematin formation at drug to heme molar equivalent ratio of 2 by infrared spectra measured after 18 hrs
# [3] = target: T1, Histidine-rich protein PFHRP-II (Plasmodium falciparum); assay: Inhibition of beta-hematin formation at 1:1 drug to heme ratio by infrared spectra measured after 18 hrs
# [4] = target: T1, Histidine-rich protein PFHRP-II (Plasmodium falciparum); assay: Inhibition of beta-hematin formation at drug to heme molar equivalent ratio of 15 by infrared spectra measured after 18 hrs
# [5] = target: T1, Histidine-rich protein PFHRP-II (Plasmodium falciparum); assay: Inhibition of beta-hematin formation at drug to heme molar equivalent ratio of 3 by infrared spectra measured after 18 hrs
compound,measurement,setting,value
CCN(CC)CCCC(C)Nc1ccnc2cc(Cl)ccc12 (centres undefined),Activity,[1],Active
NCCNc1ccnc2cc(Cl)ccc12,Activity,[1],Active
CC(C)C1=CC2OC3(CCC(NCCNc4ccnc5cc(Cl)ccc45)CC3)OOC2CC1 (centres undefined),Activity,[2],Active
C[C@@H]1CC[C@H]2[C@@H](C)C(=O)O[C@@H]3O[C@@]4(C)CC[C@@H]1[C@]32OO4,Activity,[3],Active
same,Activity,[4],inactive
CO[C@H]1O[C@@H]2O[C@@]3(C)CC[C@H]4[C@H](C)CC[C@@H]([C@H]1C)[C@@]24OO3,Activity,[4],inactive
COc1cc(NC(C)CCCNC2CCC3(CC2)OOC2CCC(C(C)C)=CC2O3)c2ncccc2c1 (centres undefined),Activity,[5],Active
C[C@H]1[C@H](OC(=O)CCC(=O)O)O[C@@H]2O[C@@]3(C)CC[C@H]4[C@H](C)CC[C@@H]1[C@@]24OO3,Activity,[4],inactive
COc1cc(NC(C)CCCN)c2ncccc2c1 (centres undefined),Activity,[4],inactive

# Source: ChEMBL document CHEMBL1153842, “Trioxaquines and heme-artemisinin adducts inhibit the in vitro formation of hemozoin better than chloroquine” (Antimicrob Agents Chemother, 2007)
